Source: BindingDB's records for doi:10.1016/j.ejmech.2020.112893 (China Pharmaceutical University, 2021)

Assay: Antagonist activity at PAR4 in human platelet-rich plasma assessed as inhibition of gamma-thrombin-induced platelet aggregation preincubated for 5 mins followed by gamma-thrombin stimulation

Compound: COc1cc(OCc2nc(-c3ccc(C(=O)N(C)C)cc3)sc2C)c2cc(-c3cn4nc(OC)sc4n3)oc2c1 [US9688695, 66]
- IC50: 2.1 nM

Compound: CSc1nn2cc(-c3cc4ccccc4o3)nc2s1 [US9862730, Example 1]
- IC50: 2600 nM
